System: 782815-120-R-J1-PDC complex spheroid viability
Assay: Anticancer human tumor 782815-120-R-J1-PDC patient-derived colon adenocarcinoma cell line growth inhibition [RAS]
Details: for IC50: curve of first compound; for viability, T/C: stronger effect = lower value
Summary of the method: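 Agents were tested in combination matrices in half-log decrements from a top concentration at or near clinical Cmax (10 microM if undetermined). Targets were multi-cell spheroids of tumour lines plus HUVEC and MSC stromal cells.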

[1] = second compound 0.0316 µM, first compound 0.0316 µM
[2] = second compound 0.0316 µM, first compound 0.1 µM
[3] = second compound 0.0316 µM, first compound 0.316 µM
[4] = second compound 0.0316 µM, first compound 1 µM
[5] = second compound 0.0316 µM, first compound 3.16 µM
[6] = second compound 0.0316 µM, first compound 10 µM
[7] = second compound 0.1 µM, first compound 0.0316 µM
[8] = second compound 0.1 µM, first compound 0.1 µM
[9] = second compound 0.1 µM, first compound 0.316 µM
[10] = second compound 0.1 µM, first compound 1 µM
[11] = second compound 0.1 µM, first compound 3.16 µM
[12] = second compound 0.1 µM, first compound 10 µM
[13] = second compound 0.316 µM, first compound 0.0316 µM
[14] = second compound 0.316 µM, first compound 0.1 µM
[15] = second compound 0.316 µM, first compound 0.316 µM
[16] = second compound 0.316 µM, first compound 1 µM
[17] = second compound 0.316 µM, first compound 3.16 µM
[18] = second compound 0.316 µM, first compound 10 µM
[19] = second compound 1 µM, first compound 0.0316 µM
[20] = second compound 1 µM, first compound 0.1 µM
[21] = second compound 1 µM, first compound 0.316 µM
[22] = second compound 1 µM, first compound 1 µM
[23] = second compound 1 µM, first compound 3.16 µM
[24] = second compound 1 µM, first compound 10 µM
[25] = second compound 3.16 µM, first compound 0.0316 µM
[26] = second compound 3.16 µM, first compound 0.1 µM
[27] = second compound 3.16 µM, first compound 0.316 µM
[28] = second compound 3.16 µM, first compound 1 µM
[29] = second compound 3.16 µM, first compound 3.16 µM
[30] = second compound 3.16 µM, first compound 10 µM
[31] = second compound 10 µM, first compound 0.0316 µM
[32] = second compound 10 µM, first compound 0.1 µM
[33] = second compound 10 µM, first compound 0.316 µM
[34] = second compound 10 µM, first compound 1 µM
[35] = second compound 10 µM, first compound 3.16 µM
[36] = second compound 10 µM, first compound 10 µM
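Also: spheroids exposed to compounds for 7 days before reading.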
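For viability, T/C in this document: 100% = DMSO vehicle control viability.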

Work on C[C@@H](NC(=O)c1ncnc(N)c1Cl)c1ncc(C(=O)Nc2cc(C(F)(F)F)c(Cl)cn2)s1 + C#Cc1c(F)ccc2cc(O)cc(-c3ncc4c(N5CC6CCC(C5)N6)nc(OCC56CCCN5CC(F)C6)nc4c3F)c12 yielded an IC50 (second compound 0.0316 µM) greater than 10 µM, an IC50 (second compound 0.1 µM) greater than 10 µM and an IC50 (second compound 0.316 µM) greater than 10 µM. The IC50 (second compound 1 µM) was greater than 10 µM, the IC50 (second compound 3.16 µM) was greater than 10 µM and the IC50 (second compound 10 µM) was greater than 10 µM. It also gave a viability, T/C [1] of 105%, a viability, T/C [2] of 101% and a viability, T/C [3] of 108%. For the same compound, the viability, T/C [4] was 90.7%, the viability, T/C [5] was 85.2% and the viability, T/C [6] was 72.3%. It also gave a viability, T/C [7] of 98.5%, a viability, T/C [8] of 111% and a viability, T/C [9] of 96.4%. For the same compound, the viability, T/C [10] was 99.1%, the viability, T/C [11] was 81.4% and the viability, T/C [12] was 71.4%. The viability, T/C [13] was 104%, the viability, T/C [14] was 108% and the viability, T/C [15] was 96.7%. The viability, T/C [16] was 95.9%, the viability, T/C [17] was 80.4% and the viability, T/C [18] was 70.5%. It also gave a viability, T/C [19] of 105%, a viability, T/C [20] of 114% and a viability, T/C [21] of 111%. For the same compound, the viability, T/C [22] was 82.5%, the viability, T/C [23] was 71.1% and the viability, T/C [24] was 61.5%. The viability, T/C [25] was 99.3%, the viability, T/C [26] was 101% and the viability, T/C [27] was 91.6%. The viability, T/C [28] was 87.3%, the viability, T/C [29] was 76.4% and the viability, T/C [30] was 65.7%. The viability, T/C [31] was 105%, the viability, T/C [32] was 100% and the viability, T/C [33] was 92.8%. The viability, T/C [34] was 86.2%, the viability, T/C [35] was 71.6% and the viability, T/C [36] was 57.2%.

CCc1c2c(nc3ccc(O)cc13)-c1cc3c(c(=O)n1C2)COC(=O)[C@]3(O)CC + C#Cc1c(F)ccc2cc(O)cc(-c3ncc4c(N5CC6CCC(C5)N6)nc(OCC56CCCN5CC(F)C6)nc4c3F)c12 gave an IC50 (second compound 0.0316 µM) of 0.00466 µM, an IC50 (second compound 0.1 µM) of 0.00439 µM and an IC50 (second compound 0.316 µM) of 0.00486 µM. It also gave an IC50 (second compound 1 µM) of 0.00476 µM, an IC50 (second compound 3.16 µM) of 0.0042 µM and an IC50 (second compound 10 µM) of 0.00439 µM. It also gave a viability, T/C (second compound 0.0316 µM, first compound 0.000949 µM) of 94.9%, a viability, T/C (second compound 0.0316 µM, first compound 0.003 µM) of 67.9% and a viability, T/C (second compound 0.0316 µM, first compound 0.00949 µM) of 20.8%. The viability, T/C (second compound 0.0316 µM, first compound 0.03 µM) was 9.58%, the viability, T/C (second compound 0.0316 µM, first compound 0.0949 µM) was 4.66% and the viability, T/C (second compound 0.0316 µM, first compound 0.3 µM) was 1.46%. It also gave a viability, T/C (second compound 0.1 µM, first compound 0.000949 µM) of 98.9%, a viability, T/C (second compound 0.1 µM, first compound 0.003 µM) of 64% and a viability, T/C (second compound 0.1 µM, first compound 0.00949 µM) of 21.4%. It also gave a viability, T/C (second compound 0.1 µM, first compound 0.03 µM) of 10.5%, a viability, T/C (second compound 0.1 µM, first compound 0.0949 µM) of 4.8% and a viability, T/C (second compound 0.1 µM, first compound 0.3 µM) of 1.59%. The viability, T/C (second compound 0.316 µM, first compound 0.000949 µM) was 96.9%, the viability, T/C (second compound 0.316 µM, first compound 0.003 µM) was 69.3% and the viability, T/C (second compound 0.316 µM, first compound 0.00949 µM) was 22.6%. It also gave a viability, T/C (second compound 0.316 µM, first compound 0.03 µM) of 10.5%, a viability, T/C (second compound 0.316 µM, first compound 0.0949 µM) of 3.58% and a viability, T/C (second compound 0.316 µM, first compound 0.3 µM) of 1.52%. The viability, T/C (second compound 1 µM, first compound 0.000949 µM) was 99.9%, the viability, T/C (second compound 1 µM, first compound 0.003 µM) was 67.4% and the viability, T/C (second compound 1 µM, first compound 0.00949 µM) was 23.6%. The viability, T/C (second compound 1 µM, first compound 0.03 µM) was 9.52%, the viability, T/C (second compound 1 µM, first compound 0.0949 µM) was 3.42% and the viability, T/C (second compound 1 µM, first compound 0.3 µM) was 1.25%. For the same compound, the viability, T/C (second compound 3.16 µM, first compound 0.000949 µM) was 99.3%, the viability, T/C (second compound 3.16 µM, first compound 0.003 µM) was 61.9% and the viability, T/C (second compound 3.16 µM, first compound 0.00949 µM) was 21%. The viability, T/C (second compound 3.16 µM, first compound 0.03 µM) was 8.73%, the viability, T/C (second compound 3.16 µM, first compound 0.0949 µM) was 3.05% and the viability, T/C (second compound 3.16 µM, first compound 0.3 µM) was 1.2%. For the same compound, the viability, T/C (second compound 10 µM, first compound 0.000949 µM) was 102%, the viability, T/C (second compound 10 µM, first compound 0.003 µM) was 64% and the viability, T/C (second compound 10 µM, first compound 0.00949 µM) was 21%. For the same compound, the viability, T/C (second compound 10 µM, first compound 0.03 µM) was 11.2%, the viability, T/C (second compound 10 µM, first compound 0.0949 µM) was 2.93% and the viability, T/C (second compound 10 µM, first compound 0.3 µM) was 0.95%.

Compound CC1(O)CCCC1n1c(=O)c(C(F)F)cc2cnc(NC3CCN(S(C)(=O)=O)CC3)nc21 (stereo unspecified) + C#Cc1c(F)ccc2cc(O)cc(-c3ncc4c(N5CC6CCC(C5)N6)nc(OCC56CCCN5CC(F)C6)nc4c3F)c12 has an IC50 (second compound 0.0316 µM) of 6.05 µM, an IC50 (second compound 0.1 µM) of 4.76 µM and an IC50 (second compound 0.316 µM) of 5.35 µM. For the same compound, the IC50 (second compound 1 µM) was 5.29 µM, the IC50 (second compound 3.16 µM) was 5.79 µM and the IC50 (second compound 10 µM) was 4.9 µM. It also gave a viability, T/C [1] of 73.7%, a viability, T/C [2] of 74.5% and a viability, T/C [3] of 65.7%. For the same compound, the viability, T/C [4] was 76%, the viability, T/C [5] was 68.8% and the viability, T/C [6] was 35.1%. The viability, T/C [7] was 83.1%, the viability, T/C [8] was 75.2% and the viability, T/C [9] was 68.8%. For the same compound, the viability, T/C [10] was 62.8%, the viability, T/C [11] was 66.4% and the viability, T/C [12] was 32.6%. The viability, T/C [13] was 78.6%, the viability, T/C [14] was 79.7% and the viability, T/C [15] was 69.2%. For the same compound, the viability, T/C [16] was 69.2%, the viability, T/C [17] was 65.6% and the viability, T/C [18] was 34.4%. It also gave a viability, T/C [19] of 88.5%, a viability, T/C [20] of 77.7% and a viability, T/C [21] of 75.4%. It also gave a viability, T/C [22] of 69.5%, a viability, T/C [23] of 70.7% and a viability, T/C [24] of 28.6%. For the same compound, the viability, T/C [25] was 77.5%, the viability, T/C [26] was 67.4% and the viability, T/C [27] was 68.7%. It also gave a viability, T/C [28] of 71%, a viability, T/C [29] of 79.1% and a viability, T/C [30] of 29.5%. For the same compound, the viability, T/C [31] was 70.7%, the viability, T/C [32] was 65.8% and the viability, T/C [33] was 65.5%. The viability, T/C [34] was 67.3%, the viability, T/C [35] was 74.3% and the viability, T/C [36] was 19.5%.
